Experimental data: patent US20250381210A1, “METHODS OF TREATING VASCULAR DEMENTIA” (The Regents of the University of California, priority 2024, published 2025)

What was measured:
VaD mouse model [1] = assay: Acute piclidenoson, infusion into lateral ventricle 30-min after VaD induction; lesion size and BBB leakage by immunostaining; type: in vivo; conditions: acute administration 30-min post stroke, for 1-2 weeks, direct infusion into lateral ventricle, vs vehicle
Experimental: (§1) VaD in the mouse was modified from white matter stroke model. Briefly, the mice were anesthetized with 2% isoflurane and securely mounted onto a stereotaxic apparatus. Core body temperature of the mice was maintained at 36.5 to 37.5° C. A midline incision was made down the scalp, and a craniotomy was performed with a dental drill. A Nanoliter injector (World Precision Instruments) was used to infuse 27 μg/μL of L-NIO (Sigma-Aldrich, 400-600) in sterile saline (Hospira) with Micro4 Controller injector (World Precision Instruments), at the speed of 100 nL/min. To avoid damage to motor cortex, the glass pipette (Wrld Precision Instruments, 1B100F-4) containing the L-NIO was inserted through the cortex of the frontal lobe into the underlying subcortical WM at an angle of 36°. Three injections (each of 0.3 μL of L-NIO solution) were made in the following coordinates: AP +0.80 mm, ML +2.00 mm, DV −1.56 mm; AP +0.80 mm, ML +2.83 mm, DV −1.60 mm; and AP +0.80 mm, ML +3.66 mm, DV −1.61 mm. Localized vasoconstriction leads to focal ischemia in the subcortical WM. Female mice were excluded because estrogen is potentially preventative against ischemic stroke.
(§2) Immunostaining was performed by brain section blocking in 5% normal donkey serum for 1 hour at room temperature, incubating in primary antibody overnight at 4° C., and in secondary antibody for 1 hour at room temperature. For the performance using CD39 and Pdgfrβ antibodies, antigen retrieval using sodium citrate buffer ([…], pH 6.0), in pressure cooker for 3 min was applied before blocking. All sections were counterstained with 4′,6-diamidino-2-phenylindole (DAPI). The antibodies used in this study are listed below.
High-resolution confocal images in z-stacks were acquired (Nikon C2). Area measurements of the infarct core, WM axonal projections stained with NF160 and MBP were quantified with Imaris (Bitplane, version 10.0.0) using surface function; all the channels were threshold with the same absolute intensity against the background. […]
• 1. Quantification of MBP and NF160 volume for FIGS. 26I, 28M, 28N. […] For each animal, 4 slices, with 300 μm interval across the lesion core along the anterior-posterior axis, were quantified. • 2. Quantification of absolute core sizes (FIG. 16F). […] The size of core area is measured in ImageJ. […] Quantification of relative core sizes (FIG. 28I, 28L). For each animal, 4 slices, with 300 μm interval across the lesion core along the anterior-posterior axis, were quantified using ImageJ. […] Quantification of c-Fos cells (FIG. 16R, 16S, 28Q, 28R). For slices from prefrontal cortex, the number of c-Fos cells were quantified by Imaris using spots function, and normalized with the number of neurons (NeuN+) in the same region of interest (ROI). […]

VaD mouse model [2] = assay: Delayed piclidenoson (5 days after VaD induction); lesion size, axon and myelin volume by immunostaining; type: in vivo; conditions: delayed treatment from 5 days after VaD induction, vs vehicle; for VaD lesion size: examined 3 weeks after treatment
Experimental: as §1, §2
High-resolution confocal images in z-stacks were acquired (Nikon C2). Area measurements of the infarct core, WM axonal projections stained with NF160 and MBP were quantified with Imaris (Bitplane, version 10.0.0) using surface function; all the channels were threshold with the same absolute intensity against the background. The parameters for scanning were kept constant across treatment, and conditions.
(§3) • 1. Quantification of MBP and NF160 volume for FIGS. 26I, 28M, 28N. Imaris (Bitplane, version 10.0.0) using surface function; all the channels were threshold with the same absolute intensity against the background. Because the absolute volume of cerebral white matter varies between coronal slices depending on the coordinate along anterior-posterior axis, it is difficult to directly compare the absolute volume of NF160 or MBP between groups. The volume of ipsilateral white matter is very similar to the contralateral white matter, we first normalized the volume of NF160 or MBP at the ipsilateral side to the contralateral side (no lesion), and then compare the normalized value between groups. This may be a more reasonable way to investigate how the axon reprojection and myelin regrowth is changed by piclidenoson (CF101) treatment. For each animal, 4 slices, with 300 μm interval across the lesion core along the anterior-posterior axis, were quantified. • 2. Quantification of absolute core sizes (FIG. 16F). For each animal, all the slices that cover the lesion core were stained with MBP, NF160, DAPI, and GFAP. The area of core is defined as brain region with NF160/MBP debris, high density of DAPI, and GFAP boundary. The size of core area is measured in ImageJ. The absolute core size is defined by the sum of core area×the slice thickness from all slices. • 3. Quantification of relative core sizes (FIG. 28I, 28L). For each animal, 4 slices, with 300 μm interval across the lesion core along the anterior-posterior axis, were quantified using ImageJ. The relative core sizes were normalized by the average of vehicle treated group. • 4. Quantification of c-Fos cells (FIG. 16R, 16S, 28Q, 28R). For slices from prefrontal cortex, the number of c-Fos cells were quantified by Imaris using spots function, and normalized with the number of neurons (NeuN+) in the same region of interest (ROI). […]

VaD mouse model [3] = assay: Novel Object Recognition (NOR) test after delayed piclidenoson treatment; type: in vivo; conditions: delayed treatment from 5 days after VaD induction, legend: one sample paired t test compared to 50%
Experimental: VaD in the mouse was modified from white matter stroke model. Briefly, the mice were anesthetized with 2% isoflurane and securely mounted onto a stereotaxic apparatus. Core body temperature of the mice was maintained at 36.5 to 37.5° C. A midline incision was made down the scalp, and a craniotomy was performed with a dental drill. A Nanoliter injector (World Precision Instruments) was used to infuse 27 μg/μL of L-NIO (Sigma-Aldrich, 400-600) in sterile saline (Hospira) with Micro4 Controller injector (World Precision Instruments), at the speed of 100 nL/min. To avoid damage to motor cortex, the glass pipette (Wrld Precision Instruments, 1B100F-4) containing the L-NIO was inserted through the cortex of the frontal lobe into the underlying subcortical WM at an angle of 36°. Three injections (each of 0.3 μL of L-NIO solution) were made in the following coordinates: AP +0.80 mm, ML +2.00 mm, DV −1.56 mm; AP +0.80 mm, ML +2.83 mm, DV −1.60 mm; and AP +0.80 mm, ML +3.66 mm, DV −1.61 mm. Localized vasoconstriction leads to focal ischemia in the subcortical WM. […] Osmotic mini-pumps (1002, 1004) were subcutaneously implanted and connected to right lateral ventricle through brain infusion kit 3 (Alzet). The brain infusion kits were fixed onto the skull with super glue (Loctite, 45198). […] All tests were performed 3-4 weeks after VaD. […] For NOR, the testing mice were allowed to explore an open field arena (30 cm×30 cm) with 2 identical objects for 12 min on the first day. Then the one object was replaced to a novel object and the mice were allowed to explore the 2 different objects for 8 min. The exploration was recorded and the time to explore each object was analyzed by ANY-maze. The data were presented as exploration ratio of time spent exploring the novel object versus both objects. For NOR, mice were habituated in an open field arena (41.5 cm×41.5 cm×41.5 cm) for 10 min. […] The exploration was recorded and the time to explore each object was analyzed by ANY-maze, and/or manually hand-scored. […]

VaD mouse model [4] = assay: c-Fos quantification in PFC (AC) and HPC (CA2/3) after delayed piclidenoson treatment; type: in vivo; conditions: VaD animals
Experimental: as §1, §2
as §3, with “(ROI). For slices from hippocampus, the number of c-Fos cells were quantified by Imaris and normalized with the volume of ROI because it is difficult to normalize with the number of neurons due to compact pyramidal cell layer. The same quality threshold was used for all samples. • 5. Quantification of CD39 in human IHC (FIG. 28D, 28E).” for “(ROI).”

VaD mouse model [5] = assay: Grid walking task after delayed piclidenoson treatment; type: in vivo; conditions: three weeks post piclidenoson treatment
Experimental: as §1, with “stroke. Osmotic mini-pumps (1002, 1004) were subcutaneously implanted and connected to right lateral ventricle through brain infusion kit 3 (Alzet). The brain infusion kits were fixed onto the skull with super glue (Loctite, 45198). For 4-week treatment, 1004 mini-pumps were used to delivery 400 µM of piclidenoson (in 1% DMSO in saline) at the speed of 0.11 μL/h; For 2-week treatment, 1002 mini-pumps were used to deliver 200 μM of piclidenoson at the speed of 0.23 μL/h. For Grid walking test, the mice were tested 1-day pre-, 7-day, 30-day, and 60-day post-VaD in progressiveness investigation, and 1-day pre-, 4-day and 21-day post-VaD in piclidenoson treatment study. Behavior tests were scored by observers who were masked to the treatment group of the animals.” for “stroke.”

VaD mouse model [6] = assay: Satb2 and Cux1 immunostaining in cortical Layer VI after delayed piclidenoson treatment; type: in vivo; conditions: motor somatosensory cortex
Experimental: as §1, §2
as §3, with “(ROI). For slices from hippocampus, the number of c-Fos cells were quantified by Imaris and normalized with the volume of ROI because it is difficult to normalize with the number of neurons due to compact pyramidal cell layer. The same quality threshold was used for all samples. • 5. Quantification of CD39 in human IHC (FIG. 28D, 28E).” for “(ROI).”

A3AR = conditions: cited from earlier work
[7] = recent phase III clinical trials for psoriasis; cited from earlier work

## CNC(=O)[C@H]1O[C@@H](n2cnc3c(NCc4cccc(I)c4)ncnc32)[C@H](O)[C@@H]1O [piclidenoson, 1-deoxy-1-[6-[(iodophenyl)methyl]amino]9H-purine-9-yl]-N-methyl-(-D-ribofuranuronamide]
VaD mouse model [1]
  VaD lesion size: may reduce lesion size
  blood brain barrier (BBB) leakage (immunoreactivity of mouse IgG): significantly reduced blood brain barrier (BBB) leakage
VaD mouse model [1]; listed as CF101
  blood brain barrier (BBB) leakage (immunoreactivity of mouse IgG): reduced blood brain barrier (BBB) leakage
VaD mouse model [1]; listed as Pic
  blood brain barrier (BBB) leakage (immunoreactivity of mouse IgG): Veh vs Pic, *p<0.05
VaD mouse model [2]
  VaD lesion size: significant reduction of lesion size
  axon volume / axonal projections (NF160 immunostaining): not changed
  myelin volume / markers of myelination (MBP immunostaining) in affected WM: significantly increased
VaD mouse model [2]; listed as CF101
  VaD lesion size: significant reduction of lesion size
  axon volume / axonal projections (NF160 immunostaining): not changed
  myelin volume / markers of myelination (MBP immunostaining) in affected WM: significantly increased
VaD mouse model [2]; listed as Pic
  VaD lesion size: Veh vs Pic, *p<0.05
  axon volume / axonal projections (NF160 immunostaining): Veh vs Pic, n.s.=not significant
  myelin volume / markers of myelination (MBP immunostaining) in affected WM: Veh vs Pic, *p<0.05
VaD mouse model [3]
  NOR memory test, memory deficits (novel object preference): significantly reduced memory deficits
VaD mouse model [3]; listed as CF101
  NOR memory test, memory deficits (novel object preference): significantly reduced memory deficits
VaD mouse model [3]; listed as Pic
  NOR memory test, memory deficits (novel object preference): Con_Veh, Con_Pic, and VaD_Pic groups, *p<0.05
VaD mouse model [4]
  c-Fos expression in HPC CA2/3, c-Fos+ cell numbers per mm^3: restored c-Fos expression
  c-Fos expression in PFC anterior cingulate (AC), c-Fos/NeuN (%): restored c-Fos expression
VaD mouse model [4]; listed as CF101
  c-Fos expression in HPC CA2/3, c-Fos+ cell numbers per mm^3: restored c-Fos expression
  c-Fos expression in PFC anterior cingulate (AC), c-Fos/NeuN (%): restored c-Fos expression
VaD mouse model [4]; listed as Pic
  c-Fos expression in HPC CA2/3, c-Fos+ cell numbers per mm^3: Con_Veh vs VaD_Pic, n.s.=not significant
  c-Fos expression in PFC anterior cingulate (AC), c-Fos/NeuN (%): Con_Veh vs VaD_Pic, n.s.=not significant
VaD mouse model [5]
  grid walking task, motor deficit: successfully rescued the motor deficit
VaD mouse model [5]; listed as CF101
  grid walking task, motor deficit: successfully rescued the motor deficit
VaD mouse model [5]; listed as Pic
  grid walking task, motor deficit: VaD_Veh vs VaD_Pic, ##p<0.01
VaD mouse model [6]
  Cux1 expression, Cux1+/NeuN (%) in Layer VI above infarct lesion: significantly ameliorated
  Satb2 expression, Satb2+/NeuN (%) in Layer VI near infarct lesion: significantly ameliorated
VaD mouse model [6]; listed as CD101
  Satb2 expression, Satb2+/NeuN (%) in Layer VI near infarct lesion: VaD_Veh vs VaD_CD101, *p<0.05
VaD mouse model [6]; listed as CF101
  Cux1 expression, Cux1+/NeuN (%) in Layer VI above infarct lesion: significantly ameliorated
  Satb2 expression, Satb2+/NeuN (%) in Layer VI near infarct lesion: significantly ameliorated
VaD mouse model [6]; listed as Pic
  Cux1 expression, Cux1+/NeuN (%) in Layer VI above infarct lesion: Con_Veh vs VaD_Pic, n.s.=not significant
  Satb2 expression, Satb2+/NeuN (%) in Layer VI near infarct lesion: Con_Veh vs VaD_Pic, n.s.=not significant
A3AR; A3AR vs A1AR and A2bAR
  potency in A3AR action relative to A1AR and A2bAR: 50 fold
A3AR
  non-specific effects on other adenosine receptors: minimal non-specific effects on other adenosine receptors
[7]
  safety in humans: safely used in humans
